Source: publication PMC9401600 (Chemmedchem, 2022)
Blank lines part the entries; values can stand above or below the compound they belong to.

Assays:
G9a [1] = biological target: T1, G9a (Homo sapiens, UniProt Q96KQ7); parameters: method as in PMID 31141392, PMID 31276898, PMID 29890830, PMID 33661013, PMID 30753076; settings: previously reported, dependent on the assay conditions used; cited from earlier work
T1 construct: purchased BPS Bioscience 52051
T1 sequence (Q96KQ7 1-1210): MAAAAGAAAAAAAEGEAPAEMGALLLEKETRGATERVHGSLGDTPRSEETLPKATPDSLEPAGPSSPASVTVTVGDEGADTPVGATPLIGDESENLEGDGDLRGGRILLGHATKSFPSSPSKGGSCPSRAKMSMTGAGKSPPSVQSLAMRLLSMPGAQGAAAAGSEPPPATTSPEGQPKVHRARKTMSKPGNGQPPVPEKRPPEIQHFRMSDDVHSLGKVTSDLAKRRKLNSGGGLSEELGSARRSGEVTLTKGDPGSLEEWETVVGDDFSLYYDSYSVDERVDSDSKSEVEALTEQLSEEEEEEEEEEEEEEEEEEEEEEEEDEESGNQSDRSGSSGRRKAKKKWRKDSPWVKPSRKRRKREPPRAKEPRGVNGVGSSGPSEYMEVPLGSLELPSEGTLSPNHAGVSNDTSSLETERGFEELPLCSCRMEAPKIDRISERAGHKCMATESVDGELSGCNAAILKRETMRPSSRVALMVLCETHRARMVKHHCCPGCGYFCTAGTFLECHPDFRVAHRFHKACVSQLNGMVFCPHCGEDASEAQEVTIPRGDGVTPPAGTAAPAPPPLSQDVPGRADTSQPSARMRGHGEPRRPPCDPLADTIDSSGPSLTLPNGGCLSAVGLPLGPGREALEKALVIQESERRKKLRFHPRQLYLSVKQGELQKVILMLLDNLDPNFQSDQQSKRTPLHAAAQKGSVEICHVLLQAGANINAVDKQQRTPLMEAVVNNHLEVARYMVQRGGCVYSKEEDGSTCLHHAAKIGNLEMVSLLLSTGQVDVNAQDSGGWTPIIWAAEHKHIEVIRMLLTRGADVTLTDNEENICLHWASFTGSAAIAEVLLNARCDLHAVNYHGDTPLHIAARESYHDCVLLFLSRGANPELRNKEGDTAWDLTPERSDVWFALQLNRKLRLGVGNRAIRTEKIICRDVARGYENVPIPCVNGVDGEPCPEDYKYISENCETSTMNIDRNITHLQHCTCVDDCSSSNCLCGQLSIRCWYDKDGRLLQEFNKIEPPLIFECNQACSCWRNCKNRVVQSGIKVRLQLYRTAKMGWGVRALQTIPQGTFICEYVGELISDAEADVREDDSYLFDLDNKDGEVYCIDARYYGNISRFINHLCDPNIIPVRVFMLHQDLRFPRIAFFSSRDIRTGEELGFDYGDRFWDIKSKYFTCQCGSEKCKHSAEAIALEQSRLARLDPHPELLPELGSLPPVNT

PAMPA‐BBB assay = format: in vitro ADME; settings: pig, PAMPA; PBS:EtOH (70 : 30); values as printed in text; read-out: in vitro permeability (Pe), PAMPA‐BBB
Procedure: To evaluate the brain penetration of the different compounds, a parallel artificial membrane permeation assay for BBB was used, following the method described by Di et al..[33] The in vitro Pe of fourteen commercial drugs through lipid extract of porcine brain membrane together with the test compounds were determined. Commercial drugs and assayed compounds were tested using a mixture of PBS:EtOH (70 : 30).

[2] = tested on: Aβ deposits in CL2006 strain; assay: Thioflavin‐S staining of Aβ aggregation; format: in vivo, Caenorhabditis elegans; settings: head region, after 5 days of treatment, compared to the vehicle group
Procedure: The transgenic AD strain CL2006 is characterized by the expression of human Aβ1‐42 under the control of a muscle‐specific promoter, making it suitable to answer this objective in our work. As we mentioned above, UNC0638 was used as a positive control. […] After 5 days of treatment, adult CL2006 C. elegans were fixed in 4 % Paraformaldehyde/Phosphate‐buffered saline (PBS) (pH 7.5), for 24 hours at 4 °C. […] On the last day, nematodes were stained with 0.125 % Thioflavin‐S (ThS) (Sigma, CAS# 1326–12‐1) in 50 % ethanol (EtOH) for 2 min, destained in 50 % EtOH for 2 min, washed 3 times with PBS. To prepare the glass slide for microscopy, approximately 10 μL volume was transferred on a droplet of Fluoromount G (Electron Microscopy Sciences, CAT#17984‐25). Fluorescence images were acquired using a 20 Å∼ objective of a fluorescence microscope. Aβ in the head region of worms were quantified by counting the number of Th−S positive spots using ImageJ and were expressed as Aβ deposits/anterior area.

G9a [3] = biological target: T1, G9a; assay: G9a Homogeneous Assay Kit (AlphaLISA) G9a inhibition; format: biochemical
Procedure: The percentages of G9a activity for the 10 selected molecules were determined at 100 μM S‐adenosylmethionine (SAM) and peptide substrate using AlphaLISA® technology. These percentages were used to calculate the IC50.
G9a inhibitors were serially diluted between 5 nM and 0.001 nM in 100 % DMSO (Sigma, St. Louis, USA). Then, respective concentrations were subsequently diluted in MilliQ purified water to reach a final concentration ranging between 50 and 0.001 μM in 1 % DMSO in well.
Briefly, a sample containing the G9a enzyme is incubated with the biotinylated substrate plus inhibitor solution for two hours. Next, acceptor beads and primary antibody is added, followed by donor beads. Finally, the Alpha‐counts were read using an AlphaScreen microplate reader. The experiment was run per triplicate. G9aactivity(%)=(C-Cb)/(Ct-Cb)x100
Ct=The chemiluminescence reading in the absence of the compound. The data set here is defined as 100 % activity in the absence of the compound.
Cb=The chemiluminescence reading in absence of enzyme. The data set here is defined as 0 % activity in the absence of the enzyme.
C=The chemiluminescence reading in the presence of the compound.
Data analysis was conducted using GraphPad Prism ver. 9 statistical software. The statistical outliers were identified with Grubb's test and excluded from the analysis. Group comparisons were carried out with a One‐way Analysis of variance (ANOVA), followed by the Dunnett post hoc test. In some cases, comparison between groups was also performed by unpaired t‐test or One‐way ANOVA, followed by Fisher's LSD post hoc test. For the calculation of IC50, non‐linear regressions were performed. […] Values are shown as the mean ± Standard error of the mean (SEM) of at least n=3. Statistical significance was considered when p values were <0.05.

SMILES: O=C1c2ccccc2-c2onc3c(N4CCCC4)cc(NCCN4CCCC4)c1c23 [Compound 7]
IC50 (G9a [1]): 1.2 µM

SMILES: COc1cc2c(cc1OC)-c1c(C)c3cc(OC)c(OC)cc3c[n+]1CC2 [Compound 8, pseudodehydrocorydaline]
IC50 (G9a [1]): 16.3 µM

Papp (PAMPA‐BBB assay): 6.2 ×10⁻⁶ cm/s | % G9a activity (G9a [3]; 0.0001 µM, first data set of Table S2): 36.4% | % G9a activity (G9a [3]; 0.0001 µM, second data set of Table S2): 37.2% | % G9a activity (G9a [3]; 0.0001 µM, third data set of Table S2): 36.8% | % G9a activity (G9a [3]; 0.001 µM, first data set of Table S2): 34.1% | % G9a activity (G9a [3]; 0.001 µM, second data set of Table S2): 35.7% | % G9a activity (G9a [3]; 0.001 µM, third data set of Table S2): 34.9% | % G9a activity (G9a [3]; 0.01 µM, first data set of Table S2): 17.0% | % G9a activity (G9a [3]; 0.01 µM, second data set of Table S2): 15.3% | % G9a activity (G9a [3]; 0.01 µM, third data set of Table S2): 16.1% | % G9a activity (G9a [3]; 0.1 µM, first data set of Table S2): 7.9% | % G9a activity (G9a [3]; 0.1 µM, second data set of Table S2): 6.8% | % G9a activity (G9a [3]; 0.1 µM, third data set of Table S2): 7.0% | % G9a activity (G9a [3]; 1 µM, first data set of Table S2): 5.2% | % G9a activity (G9a [3]; 1 µM, second data set of Table S2): 5.8% | % G9a activity (G9a [3]; 1 µM, third data set of Table S2): 6.3% | % G9a activity (G9a [3]; 10 µM, first data set of Table S2): 1.9% | % G9a activity (G9a [3]; 10 µM, second data set of Table S2): 2.6% | % G9a activity (G9a [3]; 10 µM, third data set of Table S2): 1.9% | % G9a activity (G9a [3]; 50 µM, first data set of Table S2): 0.1% | % G9a activity (G9a [3]; 50 µM, second data set of Table S2): 0.7% | % G9a activity (G9a [3]; 50 µM, third data set of Table S2): 0.3%
SMILES: COc1cc2c(NC3CCN(C(C)C)CC3)nc(C3CCCCC3)nc2cc1OCCCN1CCCC1 [UNC0638, reference compound]
reduction of Aβ deposition (Thioflavin S‐positive particles) [2]: approximately 25%
